This passage reports class results from patent publication US20050197350A1, “Novel quinoline, tetrahydroquinazoline, and pyrimidine derivatives and methods of treatment related to the use thereof” (TAISHO PHARMACEUTICAL CO., LTD., priority 2003, published 2005).

The experiment deals with MCH receptors. The experiment is described as follows: MCH receptor activity class (method not given). Particulars: class 1-3 by percent of control at 10^-7 M or IC50.

As to `CN(C)c1nc(N[C@H]2CC[C@@H](CNC(=O)c3cccc(Br)c3)CC2)nc2c1CCCC2` [compound 583, 3-bromo-N-[(cis-4-{[4-(dimethylamino)-5,6,7,8-tetrahydroquinazolin-2-yl]amino}cyclohexyl)methyl]benzamide], the class is 2 (Class 2: The value of percent of control at 10^−7 M was from 40% to 60% or the value of IC′50 was from 50 nM to 200 nM.).

In the case of `CN(C)c1nc(N[C@H]2CC[C@@H](CNC(=O)c3ccc(Br)cc3)CC2)nc2c1CCCC2` [compound 584], the class is given as 3 (Class 3 The value of percent of control at 10^−7 M was more than 60% or the value of IC50 was more than 200 nM.).

For `CN(C)c1nc(N[C@H]2CC[C@@H](CNC(=O)c3ccc4nonc4c3)CC2)nc2c1CCCC2` [compound 585], the class is 3 (Class 3 The value of percent of control at 10^−7 M was more than 60% or the value of IC50 was more than 200 nM.).

For `CN(C)c1nc(N[C@H]2CC[C@@H](CNC(=O)c3cccc(Cl)c3)CC2)nc2c1CCCC2` [compound 586], the class is recorded as 3 (Class 3 The value of percent of control at 10^−7 M was more than 60% or the value of IC50 was more than 200 nM.).

With `CN(C)c1nc(N[C@H]2CC[C@@H](CNC(=O)c3ccc(Cl)cc3)CC2)nc2c1CCCC2` [compound 587], the class is 3 (Class 3 The value of percent of control at 10^−7 M was more than 60% or the value of IC50 was more than 200 nM.).

Take `CN(C)c1nc(N[C@H]2CC[C@@H](CNC(=O)/C=C/c3ccccc3)CC2)nc2c1CCCC2` [compound 588]: the class is 3 (Class 3 The value of percent of control at 10^−7 M was more than 60% or the value of IC50 was more than 200 nM.).

In the case of `CN(C)c1nc(N[C@H]2CC[C@@H](CNC(=O)c3ccc(Cl)c([N+](=O)[O-])c3)CC2)nc2c1CCCC2` [compound 589], the class was 3 (Class 3 The value of percent of control at 10^−7 M was more than 60% or the value of IC50 was more than 200 nM.).

On to `CN(C)c1nc(N[C@H]2CC[C@@H](CNC(=O)Cc3ccc(Cl)cc3)CC2)nc2c1CCCC2` [compound 590], for which the class is reported as 3 (Class 3 The value of percent of control at 10^−7 M was more than 60% or the value of IC50 was more than 200 nM.).

Turning to `CN(C)c1nc(N[C@H]2CC[C@@H](CNC(=O)c3cccc(C#N)c3)CC2)nc2c1CCCC2` [compound 591], the class is given as 3 (Class 3 The value of percent of control at 10^−7 M was more than 60% or the value of IC50 was more than 200 nM.).

As to `CN(C)c1nc(N[C@H]2CC[C@@H](CNC(=O)c3cc(Cl)cc(Cl)c3)CC2)nc2c1CCCC2` [compound 592], the class is on record as 3 (Class 3 The value of percent of control at 10^−7 M was more than 60% or the value of IC50 was more than 200 nM.).

In the case of `CN(C)c1nc(N[C@H]2CC[C@@H](CNC(=O)c3ccc(Cl)c(Cl)c3)CC2)nc2c1CCCC2` [compound 593], the class is 3 (Class 3 The value of percent of control at 10^−7 M was more than 60% or the value of IC50 was more than 200 nM.).

Consider `CN(C)c1nc(N[C@H]2CC[C@@H](CNC(=O)C(c3ccccc3)c3ccccc3)CC2)nc2c1CCCC2` [compound 594], for which the class is reported as 3 (Class 3 The value of percent of control at 10^−7 M was more than 60% or the value of IC50 was more than 200 nM.).

For the molecule `CN(C)c1nc(N[C@H]2CC[C@@H](CNC(=O)c3ccc(F)c(F)c3)CC2)nc2c1CCCC2` [compound 595], the class is listed as 3 (Class 3 The value of percent of control at 10^−7 M was more than 60% or the value of IC50 was more than 200 nM.).

In the case of `CN(C)c1nc(N[C@H]2CC[C@@H](CNC(=O)c3cc(F)cc(F)c3)CC2)nc2c1CCCC2` [compound 596], the class is 3 (Class 3 The value of percent of control at 10^−7 M was more than 60% or the value of IC50 was more than 200 nM.).

Turning to `COc1ccc(OC)c(CC(=O)NC[C@H]2CC[C@@H](Nc3nc4c(c(N(C)C)n3)CCCC4)CC2)c1` [compound 597], the class was 3 (Class 3 The value of percent of control at 10^−7 M was more than 60% or the value of IC50 was more than 200 nM.).
